# How the values were obtained:
# [1] = system: Bacillus subtilis (ATCC 49343); test: Modified disc diffusion antimicrobial assay; type: cell-based; settings: ATCC49343, B. subtilis, 50 μg/disk, 6 mm disks, 37° C., 18 hours
# Description: Antimicrobial Assays Compounds were tested for antimicrobial activity against Escherichia coli (ATCC 8739) and Bacillus subtilis (ATCC 49343) and for antifungal activity against Candida albicans (ATCC 90027) using a modified disc diffusion assay. Briefly, agar plates seeded with suspensions of bacteria or fungi were prepared by adding 500 μL of a 24 h culture of bacteria to 100 mL of autoclaved Antibiotic Medium 2 (AB2) containing 1% agar and cooled to 55° C., or of fungi to Sabouraud Dextrose Agar (SDA) at 55° C. Seeded liquid agar (10 mL) was transferred immediately to square Petri dishes and allowed to cool for 1 h. Controls used for C. albicans, E. coli and B. subtilis included amphotericin B (25 μg), ampicillin (50 μg) and choloramphenicol (12.5 μg), respectively. Sterile disks (6 mm) containing control antibiotics or one of the macrocycles ([…]) were placed onto the agar and plates were incubated at 37° C. for 18 hours Inhibitory activity was measured by the zones of inhibition.
# 4T1 breast tumor cells [2] = test: In vitro wound-healing assay; type: cell-based, mouse; settings: 4T1 cells, medium with 10% FBS, overnight incubation at 37° C.
# Description: In vitro Wound-Healing Assay: 4T1 breast tumor cells in medium containing 10% fetal bovine serum (FBS) were seeded into wells of 24-multiwell plates (Becton-Dickinson). After they grew to confluence, wounds were made with sterile pipette tips. Cells were washed with Phosphate Buffered Saline (PBS) and refreshed with medium with or without 10% FBS. After overnight incubation at 37° C., cells were fixed and photographed according to protocols described by Yang, S, and Huang, X.-Y. J. Biol. Chem. 2005, 280, 27130-27137; and Shan, D.; Chen, L.; Njardarson, J. T.; Gaul, C.; Ma, X.; Danishefsky, S. J.; and Huang, X.-Y. Proc. Natl. Acad. Sci. U.S.A. 2005, 102, 3772-3776, both the Yang and Shan references are incorporated herein by reference.
# 4T1 breast tumor cells [3] = test: Chamber cell migration assay (Boyden chambers); type: cell-based; settings: Mus musculus, 10% FBS in lower chamber, 4 h
# Description: Chamber Cell Migration Assay: Cell migration was assayed in Boyden chambers [8.0 μm pore size polyethylene terephthalate membrane, FALCON cell culture insert (Becton-Dickinson)]. Cells were trypsinized and counted. 5-10×10^4 cells in serum free medium (300 μl) were added to the upper chamber and 500 μl of appropriate medium with 10% FBS were added to the lower chamber. Transwells were incubated for 4 h at 37° C. Cells on the inside of the transwell inserts were removed with a cotton swab, and cells on the underside of the insert were fixed and stained. Photographs of three random fields were taken and the number of cells counted to calculate the average number of cells that had transmigrated. Results in the form of IC50 values obtained from the chamber migration assay using 4T1 breast tumor cells for compounds 1-6 are presented in Table 1.
# 4T1 breast tumor cells [4] = test: Cell proliferation assay; type: cell-based, mouse; settings: DMEM with 10% FBS, cells counted daily (FIG. 1)
# Description: Cell Proliferation Assay: 4T1 breast tumor cells were trypsinized, resuspended in Dulbecco's Modified Eagle Medium (DMEM) with 10% FBS and counted. 5×10^4 cells were plated per well in a 6-well dish and grown in DMEM with 10% FBS. Each day of the assay, one well of each type of cell was trypsinized and the cells were counted.
smiles,measurement,setting,value
O=C1CC/C=C\CNC(=O)[C@]2(O)C[C@@H](O)[C@@H](O)[C@@H](C2)O1 [Compound 1],zone of inhibition at 50 µg/disc,[1],9 mm
same,closure of the wound (cell migration),4T1 breast tumor cells [2],prevented closure of the wound
same,IC50,4T1 breast tumor cells [3]; unit column prints nM,77 ± 17 nM
same,4T1 cell proliferation,4T1 breast tumor cells [4],does not affect 4T1 cell proliferation
O=C1CC/C=C/CNC(=O)[C@]2(O)C[C@@H](O)[C@@H](O)[C@@H](C2)O1 [Compound 2],IC50,4T1 breast tumor cells [3]; unit given in μM,> 250000 nM
O=C1CCCC/C=C\CNC(=O)[C@]2(O)C[C@@H](O)[C@@H](O)[C@@H](C2)O1 [Compound 3],zone of inhibition at 50 µg/disc,[1],8.5 mm
same,IC50,4T1 breast tumor cells [3]; unit given in μM,525000 ± 163000 nM
O=C1CCCC/C=C/CNC(=O)[C@]2(O)C[C@@H](O)[C@@H](O)[C@@H](C2)O1 [Compound 4],zone of inhibition at 50 µg/disc,[1],7.5 mm
same,IC50,4T1 breast tumor cells [3]; unit given in μM,12000 ± 2900 nM
CC(C)(C)OC(=O)NC(Cc1ccccc1)C(=O)O[C@@H]1C[C@]2(O)C[C@@H](OC(=O)CCCC/C=C\CNC2=O)[C@@H]1O (stereo partly drawn) [Compound 5],IC50,4T1 breast tumor cells [3]; unit given in μM,> 500000 nM
CC(C)=CC(=O)O[C@@H]1C[C@]2(O)C[C@@H](OC(=O)CCCC/C=C\CNC2=O)[C@@H]1O [Compound 6],IC50,4T1 breast tumor cells [3]; unit column prints nM,550 ± 189 nM
"CC1(C)S[C@@H]2[C@H](NC(=O)[C@H](N)c3ccccc3)C(=O)N2[C@H]1C(=O)O [ampicillin, reference compound]",zone of inhibition at 50 µg/disc,[1],15 mm
